Measured values: US20110118192A1, “METHODS AND COMPOSITIONS FOR TREATING T-CELL LEUKEMIA” (priority 2007, published 2011)
“Also recorded” adds a separate entry of the source.

Tests used:
[1] = test system: p-AKT (Ser473); assay: Western blot analysis of PTEN and p-AKT (Ser473) in GSI sensitive T-ALL cell lines; assay type: cell-based, human; conditions: GSI-sensitive/PTEN-positive T-ALL cell lines
Text: (§1) FIG. 3. NOTCH1 regulates PTEN expression, AKT signaling and glucose metabolism. (a) Real-time PCR analysis of PTEN transcript levels upon NOTCH1 inhibition by GSI in CUTLL1 and HPB-ALL relative to (DMSO) controls. GAPDH levels were used as reference control. (b) Western blot analysis of PTEN and p-AKT (Ser473) in GSI sensitive T-ALL cell lines treated with CompE. AKT and α-Tubulin are shown as loading controls. (c) Real-time PCR analysis of Hes1 and PTEN expression in mouse DN3 thymocytes cocultured with stromal cells (OP9) or stromal cells expressing the NOTCH1 ligand Delta-like-1 (OP9-DL1). Data are means +/− standard deviation of duplicate (day 1) and triplicate (day 2) experiments. (d) Glucose uptake analysis in HPB-ALL and P12ICHIKAWA T-ALL cell lines in basal conditions (vehicle treatment only). (e) Glucose oxidation analysis in HPB-ALL and P12-ICHIKAWA T-ALL cell lines in basal conditions (vehicle treatment only). (f) Effects of GSI treatment in glucose uptake in HPB-ALL and P12-ICHIKAWA T-ALL cells. (g) Effects of GSI treatment in glucose oxidation in HPB-ALL and P12-ICHIKAWA T-ALL cells. Data shown in (d) and (f) are means +/− standard deviation of triplicates. Data shown in (e) and (g) are means +/− standard deviation of duplicates. P values in (a) and (c)-(g) were derived from Student's t-test. […]

[2] = test system: HPB-ALL cells; assay: Glucose uptake and oxidation in HPB-ALL cells; assay type: cell-based, human; conditions: CompE 100 nM for 96 hours
Text: as §1, with “only).” for “only). (f) Effects of GSI treatment in glucose uptake in HPB-ALL and P12-ICHIKAWA T-ALL cells. (g) Effects of GSI treatment in glucose oxidation in HPB-ALL and P12-ICHIKAWA T-ALL cells. Data shown in (d) and (f) are means +/− standard deviation of triplicates. Data shown in (e) and (g) are means +/− standard deviation of duplicates. P values in (a) and (c)-(g) were derived from Student's t-test.”
(§2) Glucose uptake and oxidation were analyzed in T-ALL cells treated with GSI (CompE 100 nM for 96 hours) or vehicle only (DMSO) controls. […] For glucose uptake, cells were incubated with 0.1 mM (2 μCi/ml) 2-[3H]-deoxy-glucose, then washed in cold PBS and solubilized in 0.1% SDS and analyzed by scintillation counting. […] Glucose oxidation was measured as the amount of ^14CO2 captured in glass fiber filters previously soaked in 5% KOH. […]

[3] = test system: P12ICHIKAWA cells; assay: Glucose uptake and oxidation in P12-ICHIKAWA cells; assay type: cell-based, human; conditions: CompE 100 nM for 96 hours
Text: as §1, with “only).” for “only). (f) Effects of GSI treatment in glucose uptake in HPB-ALL and P12-ICHIKAWA T-ALL cells. (g) Effects of GSI treatment in glucose oxidation in HPB-ALL and P12-ICHIKAWA T-ALL cells. Data shown in (d) and (f) are means +/− standard deviation of triplicates. Data shown in (e) and (g) are means +/− standard deviation of duplicates. P values in (a) and (c)-(g) were derived from Student's t-test.”
as §2

[4] = test system: PTEN; assay: Real-time PCR analysis of PTEN transcript levels upon NOTCH1 inhibition by GSI; assay type: cell-based, human; conditions: GSI-sensitive/PTEN-positive cells (CUTLL1, HPB-ALL)
Text: FIG. 3. NOTCH1 regulates PTEN expression, AKT signaling and glucose metabolism. (a) Real-time PCR analysis of PTEN transcript levels upon NOTCH1 inhibition by GSI in CUTLL1 and HPB-ALL relative to (DMSO) controls. GAPDH levels were used as reference control. (b) Western blot analysis of PTEN and p-AKT (Ser473) in GSI sensitive T-ALL cell lines treated with CompE. AKT and α-Tubulin are shown as loading controls. (c) Real-time PCR analysis of Hes1 and PTEN expression in mouse DN3 thymocytes cocultured with stromal cells (OP9) or stromal cells expressing the NOTCH1 ligand Delta-like-1 (OP9-DL1). Data are means +/− standard deviation of duplicate (day 1) and triplicate (day 2) experiments. […]
Total RNA from T-ALL cell lines was extracted with RNAqueous kit (Ambion) following the manufacturer's instructions. cDNA was generated with the ThermoScript RT-PCR system (Invitrogen) and analyzed by quantitative real-time PCR (SYBR Green RT-PCR Core Reagents kit and the 7300 Real-Time PCR System, both from Applied Biosystems). Similar procedures were used to analyze RNA from DN3 cells purified from OP9 cocultures: Trizol method (Invitrogen) for RNA isolation, Omniscript RT kit (Qiagen) for cDNA synthesis and QuantiTect SYBR Green PCR kit (Qiagen) and the Applied Biosystems Sequence Detection System 7000 for PCR. […]

[5] = test system: CUTLL1 cells; assay: Autophagy analysis (electron microscopy, LC3 Western blot) in CUTLL1 cells; assay type: cell-based, human
Method: FIG. 11. […] (a, b) Transmission electron microscopy analysis of an early pass culture of CUTLL1 cells treated with vehicle control (DMSO) or GSI ([…] CompE) for 6 days. White arrow heads indicate phagosomes. Black arrowheads indicate mitochondria. (c) Quantitation of double membrane structures excluding mitochondria in control (DMSO) and GSI (CompE)-treated cells. Horizontal lines indicate the median. P values were derived from the Wilcoxon rank sum test. (d) Western blot analysis of the phagosome-associated LC3 protein in CUTLL1 cells treated with DMSO or CompE for 48 hours.
(§3) Antibodies against activated NOTCH1 (Val1744, Cell Signaling); PTEN (clone 6H2.1, Cascade Biosciences), phospho-AKT (Ser473), AKT (Cell Signaling), LC3, and α-tubulin (TU-02, Santa Cruz Biotechnology) were used according to standard procedures. PTEN immunostaining of formalin-fixed paraffin-embedded tissue sections was performed after heat-induced epitope retrieval in a microwave in citrate buffer (pH6.0). PTEN antibody (Zymed) was used at a 1:50 dilution. Slides were incubated at room temperature overnight before antigen detection using a Ventana automated staining platform (Ventana) and diaminobenzidine (DAB) detection.
Electron microscopy. […] Double membrane structures, excluding mitochondria, were counted in sample preparations of an early-pass culture of CUTLL1 cells treated with DMSO or CompE (500 nM) for 6 days.

[6] = test system: CUTLL1 cells; assay: Cell size (flow cytometry) and cell growth (MTT) assays in CUTLL1 cells; assay type: cell-based, human; conditions: CompE 100 nM for 4 days
Method: (§4) FIG. 2. PTEN loss and AKT activation induce GSI resistance in T-ALL. […] No protective effect was observed by expression of a control shRNA targeting the luciferase gene (shRNA LUC). Mean FSC-H values for GSI and vehicle only treatment controls are indicated. Bar graphs represent means +/− standard deviation of triplicate samples. P values were derived from Student's t-test.
(§5) Changes in cell size were monitored by flow cytometry after NOTCH1 inactivation by GSI treatment (CompE 100 nM) and upon lentiviral shRNA knock-down of NOTCH1. Cell growth ratios were determined by a colorimetric assay using the Cell Proliferation Kit I (MTT) (Roche) in cells treated with inhibitors or vehicle treated controls.

[7] = test system: DND41 cells; assay: Cell size (flow cytometry) and cell growth (MTT) assays in DND41 cells; assay type: cell-based, human; conditions: CompE 100 nM for 4 days
Method: as §4, §5

[8] = test system: NOTCH1 processing; assay: Western blot analysis of activated NOTCH1 (NOTCH1IC) in GSI-sensitive and GSI-resistant T-ALL cell lines; assay type: cell-based, human; conditions: Comp E 100 nM, 24 hours
Method: FIG. 7. CompE treatment effectively blocks NOTCH1 processing in GSI-sensitive and resistant T-ALL cells. Western blot analysis of activated NOTCH1 (NOTCH1IC) levels in GSI-sensitive and resistant cell lines after 24 hours treatment with Comp E (100 nM). α-Tubulin levels are shown as loading control. Lower molecular weight bands correspond to activated NOTCH1 protein in cell lines harboring mutations that result in C-terminal truncations of the PEST domain (NOTCH 1IC-ΔPEST).
as §3

[9] = test system: DELTEX1; assay: Quantitative RT-PCR analysis of DELTEX1 expression in GSI-sensitive and resistant T-ALL cell lines; assay type: cell-based, human; conditions: Comp E 100 nM, 24 hours
Method: FIG. 8. CompE treatment effectively down regulates the expression of DELTEX1 in GSI-sensitive and resistant T-ALL cells. (a and b) Quantitative RT-PCR analysis of DELTEX1 expression in GSI-sensitive and resistant cell lines after 24 hours of treatment with Comp E (100 nM). Relative expression levels were calculated by the ΔΔCt method using GAPDH as a reference control. Data are means +/− standard deviation.
Total RNA from T-ALL cell lines was extracted with RNAqueous kit (Ambion) following the manufacturer's instructions. cDNA was generated with the ThermoScript RT-PCR system (Invitrogen) and analyzed by quantitative real-time PCR (SYBR Green RT-PCR Core Reagents kit and the 7300 Real-Time PCR System, both from Applied Biosystems). Similar procedures were used to analyze RNA from DN3 cells purified from OP9 cocultures: Trizol method (Invitrogen) for RNA isolation, Omniscript RT kit (Qiagen) for cDNA synthesis and QuantiTect SYBR Green PCR kit (Qiagen) and the Applied Biosystems Sequence Detection System 7000 for PCR. Relative expression levels were based on GAPDH and β-actin as reference controls.

[10] = test system: Drosophila ey-Gal4>DI flies; assay: Drosophila DAPT treatments of flies overexpressing Delta (ey-Gal4>DI); assay type: in vivo
Text: FIG. 16. Inhibition of NOTCH signaling with GSI can suppress overgrowth caused by overexpression of Delta in vivo. (a) Quantification of NOTCH-like eye growth phenotypes associated with treatment with the presenilin/γ-secretase inhibitor DAPT in flies that overexpressed the NOTCH ligand Delta, during the proliferation phase of eye development. Genotype is ey-Gal4 UAS-DI (hereafter, ey-Gal4>DI). (b) Quantification of other NOTCH-like wing phenotypes (loss of wing margin and small wing size) in the ey-Gal4>DI treated animals. For each of the DAPT concentrations shown, the number of eyes and wings quantified were: n=215 (0 mM of DAPT), n=202 (0.25 mM), n=455 (0.5 mM) and n=318 (1 mM). Representative data from two independent experiments are shown.
Drosophila DAPT treatments. The γ-secretase inhibitor DAPT prevents NOTCH processing, translocation and signaling in cell culture and induces developmental defects in Drosophila similar to those caused by genetic reduction of NOTCH signaling. Stock solutions of the compound in ethanol were added to 2.5 ml of distilled water and dried potato food were prepared. Flies carrying a Delta transgene (UAS-DI) and the eye-specific Gal4 driver, ey-Gal4 (hereafter, ey-Gal4>DI) were kept on standard fly food at 26° C. for 3 days (72 hours) and the progeny were collected and transferred to the vials containing the food mixed with DAPT and allowed to progress through development in the presence of DAPT until closure.

[11] = non-lethal doses (1 mM) in food

Row | Compound | AKT Ser473 phosphorylation [1] | glucose oxidation [2] | glucose uptake [2] | glucose oxidation [3] | glucose uptake [3] | PTEN expression (transcript levels) [4] | autophagy (transmission electron microscopy, double membrane structures) ([5]; 500 nM CompE for 6 days) | phagosome-associated LC3 protein (Western blot) ([5]; CompE for 48 hours) | cell growth [6] | cell size (FSC-H) [6] | cell growth [7] | cell size [7] | NOTCH1 processing (activated NOTCH1, NOTCH1IC levels) [8] | NOTCH1 signaling (DELTEX1 expression) [9] | eye growth induced by Delta overexpression ([10]; ey-Gal4>DI flies, DAPT in food) | wing phenotype ([10]; ey-Gal4>DI flies, DAPT in food) | Delta-induced eye overgrowth [10, 11] | eye and wing size [10, 11]
1 | C[C@H](NC(=O)Cc1cc(F)cc(F)c1)C(=O)N[C@H]1N=C(c2ccccc2)c2ccccc2N(C)C1=O [CompE, (2S)-2-{[(3,5-Difluorophenyl)acetyl]amino}-N-[(3S)1-methyl-2-oxo-5-phenyl-2,3-dihydro-1H-1,4-benzodiazepin-3-yl]propanamide] | decreased Ser473 phosphorylation on AKT | significant reductions | significant reductions | not affected | not affected | significant upregulation of PTEN expression | induces autophagy | induced the LC3-II isoform | decreased cell growth | Decreased cell size | reduced cell growth | cell size defects | effectively block NOTCH1 processing in all cell lines; also recorded: showed NOTCH1 inhibition | effectively blocks NOTCH1 signaling and downregulates the expression of genes directly regulated by NOTCH1 | – | – | – | –
2 | C[C@H](NC(=O)Cc1cc(F)cc(F)c1)C(=O)N[C@H](C(=O)OC(C)(C)C)c1ccccc1 [DAPT, N-[N-(3,5-difluorophenacetyl)-L-alanyl]-Sphenylglycine-t-butylester] | – | – | – | – | – | – | – | – | – | – | – | – | – | – | suppression of eye overgrowth; also recorded: prevented eye growth induced by Delta overexpression | wing defects equivalent to a genetic reduction of NOTCH activity | inhibits Delta-induced overgrowth | eyes and wings smaller than wild type
